Test results from the supplement of paper PMC6045584.
± gives the standard deviation of the averaged measurements.

Tests used:
FORETINIB = compound: COc1cc2c(Oc3ccc(NC(=O)C4(C(=O)Nc5ccc(F)cc5)CC4)cc3F)ccnc2cc1OCCCN1CCOCC1 [FORETINIB]; assay: surviving fraction relative to DMSO-only wells; higher = less growth inhibition; conditions: exposure time: 5 days
Procedure, shortened: (§1)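 After seeding at 250–500 cells per well in 384-well plates and a 24-hour wait, log-phase tumour cell lines were exposed without interruption for five days to inhibitors at 0.5, 1, 5, 10, 50, 100, 500 and 1000 nM. CellTiter-Glo luminescence was recorded after 10 minutes at room temperature. Viability is reported as surviving fraction, the luminescence normalised to the median of DMSO-only wells.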

[1] = compound: CNCc1ccc(-c2[nH]c3cc(F)cc4c3c2CCNC4=O)cc1; assay: as above; conditions: exposure time: 5 days
Procedure, shortened: as §1

Row | Test System | surviving fraction (FORETINIB; 0.5 nM) | surviving fraction (FORETINIB; 1 nM) | surviving fraction (FORETINIB; 5 nM) | surviving fraction (FORETINIB; 10 nM) | surviving fraction (FORETINIB; 50 nM) | surviving fraction (FORETINIB; 100 nM) | surviving fraction (FORETINIB; 500 nM) | surviving fraction (FORETINIB; 1000 nM) | surviving fraction ([1]; 0.5 nM) | surviving fraction ([1]; 1 nM) | surviving fraction ([1]; 5 nM) | surviving fraction ([1]; 10 nM) | surviving fraction ([1]; 50 nM) | surviving fraction ([1]; 100 nM) | surviving fraction ([1]; 500 nM) | surviving fraction ([1]; 1000 nM)
1 | SCC47 HEADNECK | 1.17 ± 0.042 | 1.2 ± 0.09 | 1.18 ± 0.029 | 1.19 ± 0.06 | 1.12 ± 0.014 | 1.02 ± 0.035 | 0.97 ± 0.047 | 0.51 ± 0.024 | 1.04 ± 0.067 | 1.03 ± 0.042 | 1.08 ± 0.048 | 1.12 ± 0.025 | 1.04 ± 0.07 | 1.05 ± 0.074 | 1.05 ± 0.032 | 0.987 ± 0.063
2 | MG63 BONE | 1.05 ± 0.012 | 1.07 ± 0.048 | 1.09 ± 0.043 | 1.11 ± 0.05 | 0.901 ± 0.037 | 0.817 ± 0.026 | 0.567 ± 0.015 | 0.322 ± 0.02 | 1.03 ± 0.052 | 1.04 ± 0.032 | 1.05 ± 0.034 | 1.06 ± 0.058 | 1.03 ± 0.03 | 1.02 ± 0.028 | 0.975 ± 0.031 | 0.938 ± 0.023
3 | CAL72 BONE | 1.1 ± 0.12 | 1.08 ± 0.12 | 1.13 ± 0.016 | 1.11 ± 0.12 | 1.17 ± 0.069 | 1.13 ± 0.041 | 0.655 ± 0.13 | 0.326 ± 0.088 | 1.09 ± 0.041 | 1.072 ± 0.0085 | 1.1 ± 0.026 | 1.08 ± 0.016 | 0.999 ± 0.073 | 0.961 ± 0.075 | 0.962 ± 0.032 | 0.902 ± 0.019
4 | CME SYNOVIAL | 1.39 ± 0.037 | 1.39 ± 0.12 | 1.41 ± 0.074 | 1.28 ± 0.14 | 1.27 ± 0.08 | 1.18 ± 0.12 | 0.887 ± 0.1 | 0.285 ± 0.048 | 1.16 ± 0.072 | 1.25 ± 0.097 | 1.11 ± 0.18 | 1.11 ± 0.18 | 0.693 ± 0.18 | 0.556 ± 0.094 | 0.373 ± 0.08 | 0.301 ± 0.015
5 | 93VU HEADNECK | 1.21 ± 0.1 | 1.21 ± 0.048 | 1.2 ± 0.13 | 1.07 ± 0.039 | 1.04 ± 0.024 | 1.04 ± 0.025 | 0.849 ± 0.13 | 0.224 ± 0.076 | 0.958 ± 0.074 | 0.994 ± 0.09 | 1.08 ± 0.081 | 1.01 ± 0.028 | 0.892 ± 0.07 | 0.859 ± 0.063 | 0.927 ± 0.04 | 0.894 ± 0.036
6 | 143B BONE | 1.05 ± 0.046 | 1.03 ± 0.033 | 1.04 ± 0.015 | 1.02 ± 0.05 | 1.01 ± 0.0099 | 1.038 ± 0.0035 | 0.86 ± 0.015 | 0.755 ± 0.03 | 1.02 ± 0.037 | 1.04 ± 0.011 | 1.07 ± 0.037 | 1.1 ± 0.073 | 1.11 ± 0.14 | 1.04 ± 0.046 | 1.07 ± 0.15 | 1.04 ± 0.067
7 | SUM149 BREAST | 0.95 ± 0.004 | 0.912 ± 0.011 | 1.04 ± 0.17 | 0.9 ± 0.0082 | 0.831 ± 0.036 | 0.969 ± 0.13 | 0.353 ± 0.05 | 0.409 ± 0.021 | 0.887 ± 0.032 | 0.997 ± 0.037 | 0.778 ± 0.039 | 0.779 ± 0.1 | 0.673 ± 0.067 | 0.665 ± 0.088 | 0.497 ± 0.033 | 0.494 ± 0.014
8 | SCC90 HEADNECK | 1.08 ± 0.073 | 1.02 ± 0.045 | 1.1 ± 0.19 | 1.08 ± 0.071 | 1.23 ± 0.061 | 1.12 ± 0.12 | 0.753 ± 0.077 | 0.753 ± 0.25 | 0.96 ± 0.039 | 1 ± 0.071 | 0.998 ± 0.058 | 1.06 ± 0.1 | 0.934 ± 0.13 | 0.916 ± 0.062 | 0.9207 ± 0.0047 | 0.948 ± 0.11
9 | S68 BREAST | 0.862 ± 0.072 | 0.875 ± 0.33 | 1.35 ± 0.14 | 0.916 ± 0.15 | 1.05 ± 0.082 | 0.78 ± 0.059 | 0.313 ± 0.025 | 0.331 ± 0.077 | 1.19 ± 0.22 | 0.82 ± 0.23 | 0.959 ± 0.1 | 0.996 ± 0.26 | 0.676 ± 0.18 | 0.696 ± 0.17 | 0.691 ± 0.15 | 0.425 ± 0.11
10 | U2OS BONE | 1.03 ± 0.018 | 1 ± 0.021 | 1.04 ± 0.034 | 1.01 ± 0.037 | 1.03 ± 0.059 | 0.958 ± 0.03 | 0.558 ± 0.028 | 0.344 ± 0.024 | 1 ± 0.016 | 1.01 ± 0.051 | 1.03 ± 0.036 | 1.06 ± 0.031 | 0.961 ± 0.011 | 0.926 ± 0.037 | 0.883 ± 0.013 | 0.774 ± 0.052
